Data from ChEMBL document CHEMBL4011633, “Donepezil-Based Central Acetylcholinesterase Inhibitors by Means of a "Bio-Oxidizable" Prodrug Strategy: Design, Synthesis, and in Vitro Biological Evaluation” (J Med Chem, 2017).
Active and inactive are the calls of the source. No cut-off for these calls is given here.

Key:
Acetylcholinesterase [1] = target: T1, Acetylcholinesterase (Homo sapiens, UniProt P22303); experiment: Inhibition of AChE in human erythrocytes using acetylthiocholine iodide as substrate preincubated for 5 mins followed by substrate addition measured every minute for 10 mins by Ellman's spectrophotometric method; assay type: cell-based
T1 sequence (P22303 whole entry): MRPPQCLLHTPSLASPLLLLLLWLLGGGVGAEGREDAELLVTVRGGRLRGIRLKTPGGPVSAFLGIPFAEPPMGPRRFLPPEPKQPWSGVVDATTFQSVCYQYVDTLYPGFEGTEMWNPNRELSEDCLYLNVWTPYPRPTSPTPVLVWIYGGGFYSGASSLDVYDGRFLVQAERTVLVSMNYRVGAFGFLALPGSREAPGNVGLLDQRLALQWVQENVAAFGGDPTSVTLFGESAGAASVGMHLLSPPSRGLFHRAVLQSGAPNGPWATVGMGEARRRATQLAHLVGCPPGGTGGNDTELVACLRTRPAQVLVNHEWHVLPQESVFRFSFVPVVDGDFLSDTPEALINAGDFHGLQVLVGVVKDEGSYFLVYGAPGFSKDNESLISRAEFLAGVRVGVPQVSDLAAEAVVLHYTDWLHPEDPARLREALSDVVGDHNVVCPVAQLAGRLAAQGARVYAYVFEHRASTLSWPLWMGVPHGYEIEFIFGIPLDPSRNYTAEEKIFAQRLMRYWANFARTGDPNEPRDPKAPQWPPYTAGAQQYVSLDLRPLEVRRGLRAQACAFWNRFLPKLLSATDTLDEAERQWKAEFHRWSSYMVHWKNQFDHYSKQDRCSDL

Acetylcholinesterase [2] = target: T1, Acetylcholinesterase; experiment: Inhibition of AChE (unknown origin)
[3] = Effective permeability of compound at pH 7.4 at 100 uM after 4 hrs by PAMPA; assay type: physicochemical; conditions: read-out: Peff
Mus musculus [4] = experiment: Toxicity in CD1 mouse brain at 10 mg/kg, ip qd administered daily for 14 days by macroscopic method; assay type: organism-based; conditions: in vivo, 336 h
Mus musculus [5] = experiment: Toxicity in CD1 mouse heart at 10 mg/kg, ip qd administered daily for 14 days by macroscopic method; assay type: organism-based; conditions: in vivo, 336 h
[6] = Prodrug activation in pH 7.4 PBS buffer at 25 uM assessed as (+/-)-1-[(3-Chlorophenyl)methyl]-4-[(5,6-dimethoxy-1-oxo-indan-2-yl)methyl]pyridin-1-ium-3-carboxamide Bromide formation after 180 mins in the presence of (+/-)-1-[(3-Chlorophenyl)methyl]-4-[(5,6-dimethoxy-1-oxo-indan-2-yl)methyl]pyridin-1-ium-3-carboxamide Bromide
[7] = Prodrug activation in 10% methanolic silver nitrate at 25 uM assessed as (+/-)-1-[(3-Chlorophenyl)methyl]-4-[(5,6-dimethoxy-1-oxo-indan-2-yl)methyl]pyridin-1-ium-3-carboxamide Bromide formation after 180 mins in the presence of (+/-)-1-[(3-Chlorophenyl)methyl]-4-[(5,6-dimethoxy-1-oxo-indan-2-yl)methyl]pyridin-1-ium-3-carboxamide Bromide
[8] = Prodrug activation in 2% PBS riboflavin at 25 uM assessed as (+/-)-1-[(3-Chlorophenyl)methyl]-4-[(5,6-dimethoxy-1-oxo-indan-2-yl)methyl]pyridin-1-ium-3-carboxamide Bromide formation after 180 mins in the presence of (+/-)-1-[(3-Chlorophenyl)methyl]-4-[(5,6-dimethoxy-1-oxo-indan-2-yl)methyl]pyridin-1-ium-3-carboxamide Bromide
[9] = Prodrug activation in 0.1% PBS NAD+ riboflavin at 25 uM assessed as (+/-)-1-[(3-Chlorophenyl)methyl]-4-[(5,6-dimethoxy-1-oxo-indan-2-yl)methyl]pyridin-1-ium-3-carboxamide Bromide formation after 180 mins in the presence of (+/-)-1-[(3-Chlorophenyl)methyl]-4-[(5,6-dimethoxy-1-oxo-indan-2-yl)methyl]pyridin-1-ium-3-carboxamide Bromide
[10] = Prodrug activation in 2% PBS NAD+ riboflavin at 25 uM assessed as (+/-)-1-[(3-Chlorophenyl)methyl]-4-[(5,6-dimethoxy-1-oxo-indan-2-yl)methyl]pyridin-1-ium-3-carboxamide Bromide formation after 180 mins in the presence of (+/-)-1-[(3-Chlorophenyl)methyl]-4-[(5,6-dimethoxy-1-oxo-indan-2-yl)methyl]pyridin-1-ium-3-carboxamide Bromide
[11] = Antioxidant activity assessed as DPPH free radical scavenging after 40 mins incubation in dark; assay type: functional
Salmonella typhimurium [12] = experiment: Genotoxicity in Salmonella typhimurium TA98 after 90 mins by Ames test; assay type: toxicity; conditions: salmonella enterica subsp. enterica serovar typhimurium, 1.5 h
Salmonella typhimurium [13] = experiment: Genotoxicity in Salmonella typhimurium TAMix after 90 mins by Ames test; assay type: toxicity; conditions: salmonella enterica subsp. enterica serovar typhimurium, 1.5 h
[14] = Toxicity in ip dosed CD1 mouse assessed as mortality administered as qd after 48 hrs; assay type: organism-based; conditions: in vivo
Mus musculus [15] = experiment: Toxicity in CD1 mouse assessed as mortality at 10 mg/kg, ip qd administered daily for 14 days; assay type: organism-based; conditions: in vivo, 336 h
Mus musculus [16] = experiment: Toxicity in CD1 mouse brain at 10 mg/kg, ip qd administered daily for 14 days by microscopic method; assay type: organism-based; conditions: in vivo, 336 h
Mus musculus [17] = experiment: Toxicity in CD1 mouse heart at 10 mg/kg, ip qd administered daily for 14 days by microscopic method; assay type: organism-based; conditions: in vivo, 336 h
Mus musculus [18] = experiment: Toxicity in CD1 mouse kidney at 10 mg/kg, ip qd administered daily for 14 days by microscopic method; assay type: organism-based; conditions: in vivo, 336 h
Mus musculus [19] = experiment: Toxicity in CD1 mouse liver at 10 mg/kg, ip qd administered daily for 14 days by microscopic method; assay type: organism-based; conditions: in vivo, 336 h
Mus musculus [20] = experiment: Toxicity in CD1 mouse assessed as change in spleen texture at 10 mg/kg, ip qd administered for 14 days by microscopic method; assay type: organism-based; conditions: in vivo, 336 h
Brain [21] = experiment: Prodrug activation in CD1 mouse brain at 10 mg/kg, ip qd administered daily for 14 days by LC-MS/MS analysis; assay type: organism-based; conditions: in vivo, 336 h
Brain [22] = experiment: Prodrug activation in CD1 mouse brain at 10 mg/kg, ip qd after 24 hrs by LC-MS/MS analysis; assay type: organism-based; conditions: in vivo
Mus musculus [23] = experiment: Toxicity in CD1 mouse kidney at 10 mg/kg, ip qd administered daily for 14 days by macroscopic method; assay type: organism-based; conditions: in vivo, 336 h
Mus musculus [24] = experiment: Toxicity in CD1 mouse liver at 10 mg/kg, ip qd administered daily for 14 days by macroscopic method; assay type: organism-based; conditions: in vivo, 336 h
Mus musculus [25] = experiment: Toxicity in CD1 mouse assessed as change in spleen texture at 10 mg/kg, ip qd administered for 14 days by macroscopic method; assay type: organism-based; conditions: in vivo, 336 h
[26] = Prodrug activation in CD3OD solution assessed as (+/-)-1-[(3-Chlorophenyl)methyl]-4-[(5,6-dimethoxy-1-oxo-indan-2-yl)methyl]pyridin-1-ium-3-carboxamide Bromide formation at 10 mM after 4 to 10 mins in presence of DPPH radical solution by 1H NMR analysis
Cholinesterase = Cholinesterase (Equus caballus, UniProt P81908)
Chain of Cholinesterase (P81908 whole entry): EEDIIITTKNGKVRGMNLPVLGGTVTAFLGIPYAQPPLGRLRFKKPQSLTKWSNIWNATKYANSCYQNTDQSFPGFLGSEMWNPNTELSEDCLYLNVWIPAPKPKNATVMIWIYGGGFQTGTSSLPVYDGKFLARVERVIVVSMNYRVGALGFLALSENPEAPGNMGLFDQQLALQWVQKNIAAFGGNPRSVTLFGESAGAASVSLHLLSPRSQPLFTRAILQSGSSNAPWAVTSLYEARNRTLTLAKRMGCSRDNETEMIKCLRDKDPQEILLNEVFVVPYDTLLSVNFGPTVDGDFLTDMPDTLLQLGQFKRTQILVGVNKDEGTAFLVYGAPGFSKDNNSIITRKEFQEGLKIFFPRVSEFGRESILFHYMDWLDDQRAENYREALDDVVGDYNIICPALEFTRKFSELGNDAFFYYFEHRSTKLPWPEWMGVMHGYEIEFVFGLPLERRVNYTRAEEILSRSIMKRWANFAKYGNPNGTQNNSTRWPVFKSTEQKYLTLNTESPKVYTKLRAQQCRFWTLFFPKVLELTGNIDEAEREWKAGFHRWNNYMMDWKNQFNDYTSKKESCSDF
Description: Inhibition of equine serum BChE using butyrylthiocholine iodide as substrate preincubated for 5 mins followed by substrate addition measured every minute for 10 mins by Ellman's spectrophotometric method

[27] = Selectivity index, ratio of IC50 for equine serum BChE to IC50 for AChE in human erythrocytes; assay type: cell-based
Acetylcholinesterase [28] = target: T1, Acetylcholinesterase; experiment: Inhibition of human recombinant AChE-induced human amyloid beta (1 to 40 residues) aggregation at 100 uM after 24 hrs by thioflavine T fluorescence method
[29] = target: Amyloid-beta precursor protein (Homo sapiens) (UniProt P05067); experiment: Inhibition of amyloid beta (1 to 42 residues) (unknown origin) self-aggregation at 10 uM measured every 5 mins by ThT-fluorescence assay
Chain of Amyloid-beta precursor protein (Homo sapiens) (P05067 whole entry, the tested form may be a part): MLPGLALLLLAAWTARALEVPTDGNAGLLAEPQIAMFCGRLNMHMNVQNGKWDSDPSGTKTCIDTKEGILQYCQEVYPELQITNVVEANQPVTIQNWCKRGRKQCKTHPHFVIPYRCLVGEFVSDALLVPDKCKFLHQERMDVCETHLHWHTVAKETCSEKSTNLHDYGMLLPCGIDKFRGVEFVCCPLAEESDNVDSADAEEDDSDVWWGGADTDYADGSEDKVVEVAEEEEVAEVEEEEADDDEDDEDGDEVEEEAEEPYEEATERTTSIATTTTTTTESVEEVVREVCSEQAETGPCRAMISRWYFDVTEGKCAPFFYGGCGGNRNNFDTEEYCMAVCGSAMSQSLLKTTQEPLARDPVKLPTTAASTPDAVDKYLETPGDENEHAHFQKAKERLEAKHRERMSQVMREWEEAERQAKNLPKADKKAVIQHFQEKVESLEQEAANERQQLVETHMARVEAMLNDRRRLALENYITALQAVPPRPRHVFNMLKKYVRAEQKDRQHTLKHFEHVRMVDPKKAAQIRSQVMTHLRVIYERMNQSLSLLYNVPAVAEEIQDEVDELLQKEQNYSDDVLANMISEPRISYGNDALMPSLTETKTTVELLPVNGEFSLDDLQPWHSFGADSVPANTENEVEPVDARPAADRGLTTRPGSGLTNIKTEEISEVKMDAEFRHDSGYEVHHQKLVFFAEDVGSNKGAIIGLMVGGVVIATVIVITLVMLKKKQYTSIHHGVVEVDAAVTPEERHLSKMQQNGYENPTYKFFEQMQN

SH-SY5Y = experiment: Cytotoxicity against human SH-SY5Y cells assessed as […] in cell viability at 0.1 to 1 mM after 24 hrs by fluorescence assay; assay type: cell-based; conditions: 1000 µM

COc1cc2c(cc1OC)C(=O)C(CC1C=CN(Cc3ccccc3C)C=C1C(N)=O)C2 (stereo not given)
IC50 (Acetylcholinesterase [1]): > 1 µM

COC(=O)c1cc2c(OC(=O)N(C)C)cccc2[n+](C)c1
IC50 (Acetylcholinesterase [2]): 0.02 µM

CC(=O)C1=CN(Cc2ccccc2C)C=CC1CC1Cc2cc3c(cc2C1=O)OCO3 (stereo not given)
IC50 (Acetylcholinesterase [1]): > 1 µM
Papp at 4 h, 100 µM [3]: 14.3 ×10⁻⁶ cm/s

COC(=O)C1=CN(C)c2cccc(OC(=O)N(C)C)c2C1
IC50 (Acetylcholinesterase [2]): > 1000 µM

CC(=O)C1=CN(Cc2ccccc2C)C=CC1CC1Cc2cc(C)ccc2C1=O (stereo not given)
IC50 (Acetylcholinesterase [1]): > 1 µM

CC(=O)C1=CN(Cc2ccccc2C)C=CC1CC1Cc2cc(Cl)ccc2C1=O (stereo not given)
IC50 (Acetylcholinesterase [1]): > 1 µM

COc1ccc2c(c1)CC(CC1C=CN(Cc3ccccc3C)C=C1C(C)=O)C2=O (stereo not given)
IC50 (Acetylcholinesterase [1]): > 1 µM
Papp at 4 h, 100 µM [3]: 14.8 ×10⁻⁶ cm/s

COc1cc2c(cc1OC)C(=O)C(CC1C=CN(Cc3cccc(Cl)c3)C=C1C(N)=O)C2 (stereo not given)
Activity (Mus musculus [4]): Non-Toxic
Activity (Mus musculus [5]): Non-Toxic
Drug metabolism [6]: 1.6%
IC50 (Acetylcholinesterase [1]): > 1 µM
Papp at 4 h, 100 µM [3]: 25.6 ×10⁻⁶ cm/s
Drug metabolism [7]: 28%
Drug metabolism [8]: 77.9%
Drug metabolism [9]: 2.9%
Drug metabolism [10]: 39.6%
EC50 [11]: 90 µM
Activity (Salmonella typhimurium [12]): Non-Toxic
Activity (Salmonella typhimurium [13]): Non-Toxic
LD50 at 48 h [14]: > 50 mg/kg
Activity (Mus musculus [15]): Non-Toxic
Activity (Mus musculus [16]): Non-Toxic
Activity (Mus musculus [17]): Non-Toxic
Activity (Mus musculus [18]): Non-Toxic
Activity (Mus musculus [19]): Non-Toxic
Activity (Mus musculus [20]): Non-Toxic
Drug metabolism (Brain [21]): Metabolite_Notdetected
Drug metabolism (Brain [22]): Metabolite_Notdetected
Activity (Mus musculus [23]): Non-Toxic
Activity (Mus musculus [24]): Non-Toxic
Activity (Mus musculus [25]): Non-Toxic
Drug metabolism [26]: Metabolite detected

CNC(=O)c1c[n+](Cc2ccccc2)ccc1CC1Cc2cc(OC)c(OC)cc2C1=O (racemic)
IC50 (Acetylcholinesterase [1]): > 1 µM
IC50 (Cholinesterase): 4.77 µM

COc1cc2c(cc1OC)C(=O)C(Cc1cc[n+](Cc3ccccc3Cl)cc1C(C)=O)C2 (racemic)
IC50 (Acetylcholinesterase [1]): 0.018 µM
Ratio IC50 [27]: 106
IC50 (Cholinesterase): 1.92 µM

COC(=O)c1c[n+](Cc2ccccc2)ccc1CC1Cc2cc(OC)c(OC)cc2C1=O (racemic)
IC50 (Acetylcholinesterase [1]): 0.0256 µM
Ratio IC50 [27]: 119
IC50 (Cholinesterase): 3.06 µM

COc1cc2c(cc1OC)C(=O)C(Cc1cc[n+](Cc3ccccc3)cc1C#N)C2 (racemic)
IC50 (Acetylcholinesterase [1]): 0.00292 µM

CC(=O)c1c[n+](Cc2ccccc2C)ccc1CC1Cc2cc(C)ccc2C1=O (racemic)
IC50 (Acetylcholinesterase [1]): 0.091 µM
Ratio IC50 [27]: 41.9
IC50 (Cholinesterase): 3.81 µM

CC(=O)c1c[n+](Cc2ccccc2C)ccc1CC1Cc2cc(C)c(C)cc2C1=O (racemic)
IC50 (Acetylcholinesterase [1]): 0.0277 µM
Ratio IC50 [27]: 6.95

COc1cc2c(cc1OC)C(=O)C(Cc1cc[n+](Cc3ccccc3C)cc1C(N)=O)C2 (racemic)
IC50 (Acetylcholinesterase [1]): 0.678 µM
IC50 (Cholinesterase): > 10 µM

COc1cc2c(cc1OC)C(=O)C(Cc1cc[n+](Cc3cccc(Cl)c3)cc1C(N)=O)C2.[Br-] (racemic)
IC50 (Acetylcholinesterase [1]): 0.041 µM
inhibition (Acetylcholinesterase [28]): 41%
Papp at 4 h, 100 µM [3]: 0.15 ×10⁻⁶ cm/s
inhibition [29]: 25%
Activity (Salmonella typhimurium [12]): Non-Toxic
Activity (Salmonella typhimurium [13]): Non-Toxic
Activity (SH-SY5Y): Non-Toxic
LD50 at 48 h [14]: 70 mg/kg
IC50 (Cholinesterase): > 10 µM

CNC(=O)c1c[n+](Cc2ccccc2C)ccc1CC1Cc2cc(OC)c(OC)cc2C1=O (racemic)
IC50 (Acetylcholinesterase [1]): 1 to 10 µM

COc1cc2c(cc1OC)C(=O)C(Cc1cc[n+](Cc3cccc(C)c3)cc1C(C)=O)C2 (racemic)
IC50 (Acetylcholinesterase [1]): 0.014 µM
Ratio IC50 [27]: 427
IC50 (Cholinesterase): 5.99 µM

COc1ccc2c(c1)CC(Cc1cc[n+](Cc3ccccc3C)cc1C(C)=O)C2=O.[Br-] (racemic)
Ratio IC50 [27]: 133
Papp at 4 h, 100 µM [3]: 0.3 ×10⁻⁶ cm/s

COC(=O)c1c[n+](Cc2ccccc2C)ccc1CC1Cc2cc(OC)c(OC)cc2C1=O (racemic)
IC50 (Acetylcholinesterase [1]): 0.0058 µM
Ratio IC50 [27]: 309
IC50 (Cholinesterase): 1.79 µM

CC(=O)c1c[n+](Cc2ccccc2C)ccc1CC1Cc2cc(Cl)ccc2C1=O (racemic)
Ratio IC50 [27]: 13.9

COc1cc2c(cc1OC)C(=O)C(Cc1cc[n+](Cc3cccc(Cl)c3)cc1C(C)=O)C2 (racemic)
IC50 (Acetylcholinesterase [1]): 0.00327 µM
Ratio IC50 [27]: 1020

CC(=O)c1c[n+](Cc2ccccc2C)ccc1CC1Cc2cc3c(cc2C1=O)OCO3 (racemic)
Ratio IC50 [27]: 26.9

COc1cc2c(cc1OC)C(=O)C(CC1CCN(Cc3ccccc3)CC1)C2 (stereo not given) [DONEPEZIL]
Activity [11]: inactive
LD50 at 48 h [14]: 22.5 mg/kg

CCN(C)C(=O)Oc1cccc([C@H](C)N(C)C)c1 [RIVASTIGMINE]
LD50 at 48 h [14]: 6.2 mg/kg
